# Measured values as given in PubChem BioAssay (NCI).
# Several values for one entry are separate records, joined by “and”; a condition that tells them apart may be missing. Equal entries are not always repeated.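 Test compounds were applied to cells in 96-well plates for 48 hours at 5 doses. GI50: concentration for 50% inhibition of growth. TGI denotes the concentration required for complete inhibition of growth.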
# Experiments:
# Assay in all cases: NCI-60 cell line screen, 48 h
# TK-10 renal = tested on: TK-10 renal
# OVCAR-5 ovarian = tested on: OVCAR-5 ovarian
# SF-295 CNS = tested on: SF-295 CNS
# KM12 colon = tested on: KM12 colon
# HCT-15 colon = tested on: HCT-15 colon
# A498 renal = tested on: A498 renal
# A549 NSCLC = tested on: A549 NSCLC
# EKVX NSCLC = tested on: EKVX NSCLC
# HCT-116 colon = tested on: HCT-116 colon
# SF-268 CNS = tested on: SF-268 CNS
Compound,GI50 (TK-10 renal) [µM],TGI (TK-10 renal),GI50 (OVCAR-5 ovarian) [µM],TGI (OVCAR-5 ovarian) [µM],GI50 (SF-295 CNS) [µM],TGI (SF-295 CNS),GI50 (KM12 colon) [µM],TGI (KM12 colon) [µM],GI50 (HCT-15 colon),TGI (HCT-15 colon),GI50 (A498 renal) [µM],TGI (A498 renal),GI50 (A549 NSCLC),TGI (A549 NSCLC),TGI (EKVX NSCLC) [µM],TGI (HCT-116 colon),TGI (SF-268 CNS),GI50 (EKVX NSCLC) [µM],GI50 (HCT-116 colon) [µM],GI50 (SF-268 CNS) [µM]
COc1cccc(C2C(C#N)=C(N)Oc3cc(OCCCCCC[P+](c4ccccc4)(c4ccccc4)c4ccccc4)ccc32)c1 (centres undefined),1.46,2.99 µM,1.35,3.15,1.58,3.19 µM,0.433,1.58,2.24 µM,6.14 µM,1.03,2.45 µM,1.53 µM,4.51 µM,,,,,,
COc1ccc(-c2c(/C=N/OCC(=O)O)c3sc4ccccc4n3c2/C=N/OCC(=O)O)cc1,,> 50 µM,,> 50,,> 50 µM,,> 50,,> 50 µM,,,,> 50 µM,> 50,> 50 µM,> 50 µM,,,
O=c1[nH]c(=S)[nH]c2c1CCCN2,,> 100 µM,,> 100,,> 100 µM,,> 100,,> 100 µM,,,,> 100 µM,> 100,> 100 µM,> 100 µM,,,
COC1CCC(CO)OO1 (centres undefined),,,,> 100,,73.6 µM,,> 100,,,,72.2 µM,,,,> 100 µM,> 100 µM,,,
N/C(=N\N=C/c1c(O)cc(O)cc1O)NO,,,,> 100,,> 100 µM,,> 100,,> 100 µM,,> 100 µM,,> 100 µM,> 94.5,> 100 µM,> 100 µM,,,
CN(C)Cc1cc(/C=C/C(=O)c2ccc(Br)cc2)cc(CN(C)C)c1O,,25.7 µM,,> 100,,38.7 µM,,29.6,,,,27.7 µM,,> 100 µM,55.2,29 µM,33.4 µM,,,
Cc1cc2ccccc2n2c1nc1ccc(O)cc12,,> 10 µM,,> 10,,> 10 µM,,> 10,,> 10 µM,,,,> 10 µM,> 10,> 10 µM,> 10 µM,,,
Cc1cc(C)c(S(=O)(=O)N(CCCCCN)OCCCN)c(C)c1,,30.8 µM,,33.7,,30.4 µM,,34.8,,,,,,36 µM,30.6,32.7 µM,37.6 µM,,,
N#Cc1nc(CN2C(=O)c3ccccc3C2=O)oc1N,,> 100 µM,,> 100,,> 100 µM,,> 100,,> 100 µM,,> 100 µM,,> 100 µM,,> 100 µM,> 100 µM,,,
CC(C)(C1=NC(C(C)(C)C)CO1)C1=N[C@@H](C(C)(C)C)CO1 (some centres undefined),,> 100 µM,,> 100,,> 100 µM,,> 100,,> 100 µM,,,,> 100 µM,> 100,> 100 µM,> 100 µM,,,
CSCCC(NC(=O)C(Cc1c[nH]c2ccccc12)NC(=O)CCNC(=O)OC(C)(C)C)C(=O)NC(CC(=O)O)C(=O)NC(Cc1ccccc1)C(N)=O (centres undefined),,> 50 µM,,> 50,,> 50 µM,,> 50,,,,> 50 µM,,> 50 µM,> 50,> 50 µM,> 50 µM,,,
COC(=O)c1ccc(C)cc1C1CN=NC12Cc1cccc(C)c1C2=O (centres undefined),,> 100 µM,,> 100,,> 100 µM,,72.5,,> 100 µM,,,,> 100 µM,> 100,> 100 µM,> 100 µM,,,
O=C(CCC(NC(=O)OCc1ccccc1)C(=O)OCc1ccccc1)Nc1cccc(OCc2ccccc2)c1 (centres undefined),,90.3 µM,,> 100,,> 100 µM,,> 100,,38.8 µM,,,,> 100 µM,> 100,36.4 µM,71 µM,,,
O=C(NCc1cn(Cc2cccc(Oc3ccccc3)c2)nn1)c1cccnc1NCc1ccc(Cl)cc1,3.7,49.1 µM,5.62,> 100,,,3.62,> 100,3.39 µM,> 100 µM,2.12,7.95 µM,3.21 µM,> 100 µM,> 100,9.4 µM,> 100 µM,3.65,3.18,4.82
Cc1cc2ccccc2oc(=O)/c1=N\Nc1ccccc1,,,,> 100,,> 100 µM,,> 100,,> 100 µM,,> 100 µM,,> 100 µM,> 100,> 100 µM,,,,
O=C(Oc1cncc(Cl)c1)c1cc2ccccc2sc1=O,,> 100 µM,,> 100,,> 100 µM,,> 100,,> 100 µM,,,,> 100 µM,> 100,> 100 µM,> 100 µM,,,
CCOC(=O)c1cnc2n(c1=O)[C@H]1CCCC[C@@H]1N2,,,,> 100,,> 100 µM,,> 100,,> 100 µM,,> 100 µM,,> 100 µM,> 100,> 100 µM,> 100 µM,,,
C#CC(O)/C=C/C(O)CCCC(O)CC#CC(O)C#CCCCCC(O)/C=C/CCCC(=O)CCCCCCCCCCCCCCCC(O)C(O)C#CC(=O)O (centres undefined),,> 25 µM,,> 25,,> 25 µM,,> 25,,> 25 µM,,,,> 25 µM,> 25,> 25 µM,> 25 µM,,,
CCC1OC2(C)CC(C#N)(C#N)C1(C#N)C(=N)O2 (centres undefined),,> 100 µM,,> 100,,> 100 µM,,> 100,,,,> 100 µM,,> 100 µM,> 100,> 100 µM,> 100 µM,,,
CN1Cc2ccccc2C2(COc3ccccc3C2=O)C1 (centres undefined),,> 100 µM,,> 100,,> 100 µM,,,,> 100 µM,,,,> 100 µM,> 100,> 100 µM,> 100 µM,,,
CC(C)=CC(=O)OC1C2C(C)=CC(=O)C(O)C2(C)C2C3(O)OCC24C(CC(=O)OC14)C(C)C3O (centres undefined),0.0511,0.0917 µM and 0.81 µM,0.113,,0.0126,0.154 µM and 0.0672 µM and 0.0966 µM,0.0209,,0.0579 µM and 0.0541 µM,0.212 µM and 0.853 µM and 0.687 µM,0.142,0.288 µM and 0.511 µM,0.0545 µM and 0.178 µM,0.598 µM and 1.55 µM and 2.22 µM,,0.0172 µM and 0.0807 µM,0.049 µM and 0.014 µM and 0.091 µM,,0.02,0.0088
